From ChEMBL document CHEMBL3526020, “Significance of peptide transporter 1 in the intestinal permeability of valacyclovir in wild-type and PepT1 knockout mice” (Drug Metab Dispos, 2013)

Columns and labels:
[1] = AUC (0 to 180 mins) in wild type mouse treated with 25 nmol/g, po of valacyclovir; format: ADME, organism-based; design: time < 3 hr, dose 25 nmol/g, route oral; conditions: plasma
[2] = AUC (0 to 180 mins) in PepT1 knockout mouse treated with 25 nmol/g, po of valacyclovir; format: ADME, organism-based; design: time < 3 hr, dose 25 nmol/g, route oral; conditions: plasma
[3] = Cmax in wild type mouse treated with 25 nmol/g, po of valacyclovir; format: ADME, organism-based; design: dose 25 nmol/g, route oral; conditions: in vivo
[4] = Cmax in PepT1 knockout mouse treated with 25 nmol/g, po of valacyclovir; format: ADME, organism-based; design: dose 25 nmol/g, route oral; conditions: in vivo
[5] = Tmax in wild type mouse treated with 25 nmol/g, po of valacyclovir; format: ADME, organism-based; conditions: in vivo
[6] = Tmax in PepT1 knockout mouse treated with 25 nmol/g, po of valacyclovir; format: ADME, organism-based; conditions: in vivo
[7] = Chemical stability of the compound; format: physicochemical
Plasma [8] = experiment: Drug level in mouse portal vein plasma treated with valacyclovir at 100 uM by HPLC analysis; format: ADME, cell-free
PepT1 (SLC15A1) [9] = target: T1, PepT1 (SLC15A1) (Mus musculus, UniProt Q9JIP7); experiment: Effective permeability of the compound assessed as PepT1-mediated drug uptake in wild type mouse jejunum at 100 uM by HPLC analysis; format: ADME; conditions: read-out: Peff
T1 sequence (Q9JIP7 whole entry): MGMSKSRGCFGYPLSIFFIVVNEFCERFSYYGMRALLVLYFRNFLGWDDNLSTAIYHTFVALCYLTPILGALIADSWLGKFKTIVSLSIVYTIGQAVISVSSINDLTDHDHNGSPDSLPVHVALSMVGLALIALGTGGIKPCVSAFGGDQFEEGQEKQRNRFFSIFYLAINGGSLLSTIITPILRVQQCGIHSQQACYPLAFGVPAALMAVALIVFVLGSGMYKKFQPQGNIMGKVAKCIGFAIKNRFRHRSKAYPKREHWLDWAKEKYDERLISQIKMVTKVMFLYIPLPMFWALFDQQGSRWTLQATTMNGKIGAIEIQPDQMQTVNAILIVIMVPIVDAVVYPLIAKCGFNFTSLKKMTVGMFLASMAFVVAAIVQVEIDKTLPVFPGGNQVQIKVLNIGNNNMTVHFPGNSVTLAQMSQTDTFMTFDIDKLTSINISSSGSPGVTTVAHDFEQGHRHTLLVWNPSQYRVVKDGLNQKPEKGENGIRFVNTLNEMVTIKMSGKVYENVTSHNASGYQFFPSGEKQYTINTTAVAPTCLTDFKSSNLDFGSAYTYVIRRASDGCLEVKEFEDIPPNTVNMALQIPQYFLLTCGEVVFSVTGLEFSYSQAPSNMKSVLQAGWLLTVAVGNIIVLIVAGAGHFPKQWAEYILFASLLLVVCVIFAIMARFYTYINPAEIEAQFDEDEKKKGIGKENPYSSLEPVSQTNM

[10] = Effective permeability of the compound in PepT1 knockout mouse jejunum at 100 uM by HPLC analysis; format: ADME, tissue-based; conditions: read-out: Peff
[11] = Permeability of the compound in human jejunum; format: ADME, tissue-based; conditions: read-out: permeability
[12] = Permeability in mouse jejunum; format: ADME, tissue-based; conditions: read-out: permeability
[13] = Drug uptake in human Caco2 cells; format: ADME, cell-based; conditions: Caco-2 cells
[14] = Drug uptake in rat jejunum; format: ADME, tissue-based
Ileum [15] = experiment: Effective permeability of the compound in PepT1 knockout mouse ileum at 100 uM by HPLC analysis relative to wild type mouse; format: ADME, tissue-based
Colon [16] = experiment: Effective permeability of the compound in PepT1 knockout mouse colon at 100 uM by HPLC analysis relative to wild type mouse; format: ADME
Jejunum [17] = experiment: Drug degradation in mouse jejunum at 100 uM by chromatographic analysis; format: ADME, tissue-based
Ileum [18] = experiment: Drug degradation in mouse ileum at 100 uM by chromatographic analysis; format: ADME, tissue-based
Duodenum [19] = experiment: Drug degradation in mouse duodenum at 100 uM by chromatographic analysis; format: ADME, tissue-based
Colon [20] = experiment: Drug degradation in mouse colon at 100 uM by chromatographic analysis; format: ADME, tissue-based
Plasma [21] = experiment: Prodrug activation in mouse portal vein plasma assessed as formation of acyclovir at 100 uM by HPLC analysis; format: cell-free
[22] = (§1) Drug uptake in wild type mouse jejunum at 0.01 to 50 mM by nonlinear Michaelis-Menten equation analysis; format: ADME, tissue-based; conditions: mouse, jejunum
Jejunum [23] = experiment: as §1; format: ADME, tissue-based
Jejunum [24] = experiment: Drug uptake in wild type mouse jejunum at 100 uM at pH 6.5 by HPLC analysis in presence of PepT1 substrate GlySar; format: ADME, tissue-based; conditions: in vivo, pH 6.5, 100 µM
Jejunum [25] = experiment: Drug uptake in wild type mouse jejunum at 100 uM at pH 6.5 by HPLC analysis in presence of PepT1 substrate cefadroxil; format: ADME, tissue-based; conditions: in vivo, pH 6.5, 100 µM
Jejunum [26] = experiment: Drug uptake in wild type mouse jejunum at 100 uM at pH 6.5 by HPLC analysis in presence of ATB0,+ substrate L-valine; format: ADME, tissue-based; conditions: in vivo, pH 6.5, 100 µM
Jejunum [27] = experiment: Drug uptake in wild type mouse jejunum at 100 uM at pH 6.5 by HPLC analysis in presence of PhT1/2 substrate L-histidine; format: ADME, tissue-based; conditions: in vivo, pH 6.5, 100 µM
Jejunum [28] = experiment: Drug uptake in wild type mouse jejunum at 100 uM at pH 6.5 by HPLC analysis in presence of organic anion substrate PAH; format: ADME, tissue-based; conditions: in vivo, pH 6.5, 100 µM
Jejunum [29] = experiment: Drug uptake in wild type mouse jejunum at 100 uM at pH 6.5 by HPLC analysis in presence of organic cation substrate TEA; format: ADME, tissue-based; conditions: in vivo, pH 6.5, 100 µM
PepT1 (SLC15A1) [30] = target: T1, PepT1 (SLC15A1); experiment: Effective permeability of the compound assessed as PepT1-mediated drug uptake in wild type mouse duodenum at 100 uM by HPLC analysis; format: ADME; conditions: read-out: Peff
PepT1 (SLC15A1) [31] = target: T1, PepT1 (SLC15A1); experiment: Effective permeability of the compound assessed as PepT1-mediated drug uptake in wild type mouse ileum at 100 uM by HPLC analysis; format: ADME, tissue-based; conditions: read-out: Peff
PepT1 (SLC15A1) [32] = target: T1, PepT1 (SLC15A1); experiment: Effective permeability of the compound assessed as PepT1-mediated drug uptake in wild type mouse colon at 100 uM by HPLC analysis; format: ADME; conditions: not told, read-out: Peff
Duodenum [33] = experiment: Effective permeability of the compound in PepT1 knockout mouse duodenum at 100 uM by HPLC analysis relative to wild type mouse; format: ADME
Jejunum [34] = experiment: Effective permeability of the compound in PepT1 knockout mouse jejunum at 100 uM by HPLC analysis relative to wild type mouse; format: ADME, tissue-based
[35] = substrate: CC(C)[C@H](N)C(=O)OCCOCn1cnc2c(=O)[nH]c(N)nc21; experiment: Permeability of the compound assessed as human PepT1-mediated drug uptake in Xenopus oocytes; format: ADME, cell-based
[36] = substrate: CC(C)[C@H](N)C(=O)OCCOCn1cnc2c(=O)[nH]c(N)nc21; experiment: Permeability of the compound assessed as human PepT1-mediated drug uptake in MDCK cells; format: ADME, cell-based
[37] = substrate: CC(C)[C@H](N)C(=O)OCCOCn1cnc2c(=O)[nH]c(N)nc21; experiment: Permeability of the compound assessed as human PepT1-mediated drug uptake in CHO cells at pH 5.5; format: ADME, cell-based
[38] = substrate: CC(C)[C@H](N)C(=O)OCCOCn1cnc2c(=O)[nH]c(N)nc21; experiment: Permeability of the compound assessed as human PepT1-mediated drug uptake in CHO cells at pH 7.9; format: ADME, cell-based

Nc1nc2c(ncn2COCCO)c(=O)[nH]1 [ACYCLOVIR]
AUC(0-t) at 3 h [1]: 12.3 µM·h
AUC(0-t) at 3 h [2]: 5.02 µM·h
Cmax [3]: 9.3 µM
Cmax [4]: 2 µM
Tmax [5]: 25 min
Tmax [6]: 70 min
Stability [7]: < 5%
Drug metabolism (Plasma [8]): metabolite_detected
Papp at 100 µM (PepT1 (SLC15A1) [9]): 4 ×10⁻⁶ cm/s
Papp at 100 µM [10]: 7.4 ×10⁻⁶ cm/s

COCCc1ccc(OCC(O)CNC(C)C)cc1 (stereo not drawn) [METOPROLOL]
Papp [11]: 134 ×10⁻⁶ cm/s
Papp [12]: 50 ×10⁻⁶ cm/s

CC(C)[C@H](N)C(=O)OCCOCn1cnc2c(=O)nc(N)[nH]c21.Cl [VALACYCLOVIR HYDROCHLORIDE]
Km [13]: 1.6 mM
Km [14]: 1.2 mM
Papp [11]: 166 ×10⁻⁶ cm/s
Peff (Ileum [15]): < 10%
Peff (Colon [16]): < 10%
Stability [7]: < 5%
Stability (Jejunum [17]): Unstable
Stability (Ileum [18]): Unstable
Stability (Duodenum [19]): Unstable
Stability (Colon [20]): Unstable
Drug metabolism (Plasma [21]): metabolite_detected
Km at up to 50000 µM [22]: 10.2 mM
Kd (Jejunum [23]): 3 ×10⁻⁵ cm/s
Drug uptake (Jejunum [23]; mouse, in vivo, 50000 µM): 82%
Vmax (Jejunum [23]; mouse, in vivo, 50000 µM): 1.4 nmol/cm2/s
Drug uptake (Jejunum [24]): Not Active
Drug uptake (Jejunum [25]): Not Active
Drug uptake (Jejunum [26]): Active
Drug uptake (Jejunum [27]): Active
Drug uptake (Jejunum [28]): Active
Drug uptake (Jejunum [29]): Active
Papp at 100 µM (PepT1 (SLC15A1) [9]): 170 ×10⁻⁶ cm/s
Papp at 100 µM (PepT1 (SLC15A1) [30]): 240 ×10⁻⁶ cm/s
Papp at 100 µM (PepT1 (SLC15A1) [31]): 210 ×10⁻⁶ cm/s
Papp at 100 µM (PepT1 (SLC15A1) [32]): 27 ×10⁻⁶ cm/s
Peff (Duodenum [33]): < 10%
Peff (Jejunum [34]): < 10%

B1: Solute carrier family 15 member 1 (Homo sapiens) (protein)
chain: MGMSKSHSFFGYPLSIFFIVVNEFCERFSYYGMRAILILYFTNFISWDDNLSTAIYHTFVALCYLTPILGALIADSWLGKFKTIVSLSIVYTIGQAVTSVSSINDLTDHNHDGTPDSLPVHVVLSLIGLALIALGTGGIKPCVSAFGGDQFEEGQEKQRNRFFSIFYLAINAGSLLSTIITPMLRVQQCGIHSKQACYPLAFGVPAALMAVALIVFVLGSGMYKKFKPQGNIMGKVAKCIGFAIKNRFRHRSKAFPKREHWLDWAKEKYDERLISQIKMVTRVMFLYIPLPMFWALFDQQGSRWTLQATTMSGKIGALEIQPDQMQTVNAILIVIMVPIFDAVLYPLIAKCGFNFTSLKKMAVGMVLASMAFVVAAIVQVEIDKTLPVFPKGNEVQIKVLNIGNNTMNISLPGEMVTLGPMSQTNAFMTFDVNKLTRINISSPGSPVTAVTDDFKQGQRHTLLVWAPNHYQVVKDGLNQKPEKGENGIRFVNTFNELITITMSGKVYANISSYNASTYQFFPSGIKGFTISSTEIPPQCQPNFNTFYLEFGSAYTYIVQRKNDSCPEVKVFEDISANTVNMALQIPQYFLLTCGEVVFSVTGLEFSYSQAPSNMKSVLQAGWLLTVAVGNIIVLIVAGAGQFSKQWAEYILFAALLLVVCVIFAIMARFYTYINPAEIEAQFDEDEKKNRLEKSNPYFMSGANSQKQM
Km [35]: 5.9 mM
Km [36]: 3.8 mM
Km [37]: 7.4 mM
Km [38]: 2.2 mM
